Source: patent US11117892B2, “Pyrrolo-pyridine derivative compound, method for preparing same, and pharmaceutical composition containing same as active ingredient for prevention or treatment of protein kinase-related diseases” (DAEGU-GYEONGBUK MEDICAL INNOVATION FOUNDATION, priority 2017, dated 2021)

Key:
Assay in all cases: scanMAX Kinase assay panel
Type in all cases: binding
[1] = biological target: p38-delta (Homo sapiens (Human), UniProt O15264); settings: read-out: % control
Protocol: (§1) DiscoverX Co. was asked to measure the enzyme (kinase) selectivity, and the experiment was performed using scanMAX™ Kinase assay panel.
(§2) (Example Compound−Positive Control)/(Negative Control−Positive Control)×100 [Equation 1]
(§3) Herein, the positive control indicates the compound showing the % control of 0%, and the negative control indicates DMSO showing the % control of 100%.

[2] = system: FLT3(ITD); settings: 1 uM
Protocol: as §1, §2, §3

[3] = biological target: MAST1 (Homo sapiens (Human), UniProt Q9Y2H9); settings: read-out: % control
Protocol: as §1, §2, §3

[4] = biological target: PIK3CA(H1047Y) (Homo sapiens (Human), UniProt P42336, H1047Y); settings: read-out: % control
Protocol: as §1, §2, §3

[5] = biological target: PHKG1 (Homo sapiens (Human), UniProt Q16816); settings: read-out: % control
Protocol: as §1, §2, §3

[6] = biological target: CSK (Homo sapiens (Human), UniProt P41240); settings: read-out: % control
Protocol: as §1, §2, §3

[7] = biological target: PLK3 (Homo sapiens (Human), UniProt Q9H4B4); settings: read-out: % control
Protocol: as §1, §2, §3

[8] = biological target: TYK2(JH1domain-catalytic) (Homo sapiens (Human), UniProt P29597); settings: read-out: % control
Protocol: as §1, §2, §3

[9] = biological target: VRK2 (Homo sapiens (Human), UniProt Q86Y07); settings: read-out: % control
Protocol: as §1, §2, §3

[10] = biological target: DLK (Homo sapiens (Human), UniProt Q12852); settings: read-out: % control
Protocol: as §1, §2, §3

[11] = biological target: FLT3(N841I) (Homo sapiens (Human), UniProt P36888, N841I); settings: read-out: % control
Protocol: as §1, §2, §3

[12] = biological target: TBK1 (Homo sapiens (Human), UniProt Q9UHD2); settings: read-out: % control
Protocol: as §1, §2, §3

[13] = biological target: PIK3C2B (Homo sapiens (Human), UniProt O00750); settings: read-out: % control
Protocol: as §1, §2, §3

[14] = biological target: FRK (Homo sapiens (Human), UniProt P42685); settings: read-out: % control
Protocol: as §1, §2, §3

[15] = biological target: EPHA2 (Homo sapiens (Human), UniProt P29317); settings: read-out: % control
Protocol: as §1, §2, §3

[16] = biological target: BIKE (Homo sapiens (Human), UniProt Q9NSY1); settings: read-out: % control
Protocol: as §1, §2, §3

[17] = biological target: DAPK3 (Homo sapiens (Human), UniProt O43293); settings: read-out: % control
Protocol: as §1, §2, §3

[18] = biological target: AAK1 (Homo sapiens (Human), UniProt Q2M2I8); settings: read-out: % control
Protocol: as §1, §2, §3

[19] = biological target: LRRK2 (Homo sapiens (Human), UniProt Q5S007); settings: read-out: % control
Protocol: as §1, §2, §3

[20] = biological target: YANK1 (Homo sapiens (Human), UniProt Q8WU08); settings: read-out: % control
Protocol: as §1, §2, §3

[21] = biological target: KIT(V559D) (Homo sapiens (Human), UniProt P10721, V559D); settings: read-out: % control
Protocol: as §1, §2, §3

[22] = biological target: PIM1 (Homo sapiens (Human), UniProt P11309); settings: read-out: % control
Protocol: as §1, §2, §3

[23] = biological target: HIPK2 (Homo sapiens (Human), UniProt Q9H2X6); settings: read-out: % control
Protocol: as §1, §2, §3

[24] = biological target: NEK3 (Homo sapiens (Human), UniProt P51956); settings: read-out: % control
Protocol: as §1, §2, §3

[25] = biological target: CAMK4 (Homo sapiens (Human), UniProt Q16566); settings: read-out: % control
Protocol: as §1, §2, §3

[26] = biological target: SRPK1 (Homo sapiens (Human), UniProt Q96SB4); settings: read-out: % control
Protocol: as §1, §2, §3

[27] = biological target: GAK (Homo sapiens (Human), UniProt O14976); settings: read-out: % control
Protocol: as §1, §2, §3

[28] = biological target: TRPM6 (Homo sapiens (Human), UniProt Q9BX84); settings: read-out: % control
Protocol: as §1, §2, §3

[29] = biological target: BMPR2 (Homo sapiens (Human), UniProt Q13873); settings: read-out: % control
Protocol: as §1, §2, §3

[30] = biological target: PIK3CD (Homo sapiens (Human), UniProt O00329); settings: read-out: % control
Protocol: as §1, §2, §3

[31] = biological target: AURKB (Homo sapiens (Human), UniProt Q96GD4); settings: read-out: % control
Protocol: as §1, §2, §3

[32] = biological target: ULK2 (Homo sapiens (Human), UniProt Q8IYT8); settings: read-out: % control
Protocol: as §1, §2, §3

[33] = biological target: NLK (Homo sapiens (Human), UniProt Q9UBE8); settings: read-out: % control
Protocol: as §1, §2, §3

[34] = biological target: FLT3(D835V) (Homo sapiens (Human), UniProt P36888, D835V); settings: read-out: % control
Protocol: as §1, §2, §3

[35] = biological target: SBK1 (Homo sapiens (Human), UniProt Q52WX2); settings: read-out: % control
Protocol: as §1, §2, §3

[36] = biological target: BRK (Homo sapiens (Human), UniProt Q13882); settings: read-out: % control
Protocol: as §1, §2, §3

[37] = biological target: NEK5 (Homo sapiens (Human), UniProt Q6P3R8); settings: read-out: % control
Protocol: as §1, §2, §3

[38] = biological target: AURKA (Homo sapiens (Human), UniProt O14965); settings: read-out: % control
Protocol: as §1, §2, §3

[39] = biological target: VPS34 (Homo sapiens (Human), UniProt Q8NEB9); settings: read-out: % control
Protocol: as §1, §2, §3

[40] = biological target: HPK1 (Homo sapiens (Human), UniProt Q92918); settings: read-out: % control
Protocol: as §1, §2, §3

Sequence of BMPR2 (Q13873 27-1038): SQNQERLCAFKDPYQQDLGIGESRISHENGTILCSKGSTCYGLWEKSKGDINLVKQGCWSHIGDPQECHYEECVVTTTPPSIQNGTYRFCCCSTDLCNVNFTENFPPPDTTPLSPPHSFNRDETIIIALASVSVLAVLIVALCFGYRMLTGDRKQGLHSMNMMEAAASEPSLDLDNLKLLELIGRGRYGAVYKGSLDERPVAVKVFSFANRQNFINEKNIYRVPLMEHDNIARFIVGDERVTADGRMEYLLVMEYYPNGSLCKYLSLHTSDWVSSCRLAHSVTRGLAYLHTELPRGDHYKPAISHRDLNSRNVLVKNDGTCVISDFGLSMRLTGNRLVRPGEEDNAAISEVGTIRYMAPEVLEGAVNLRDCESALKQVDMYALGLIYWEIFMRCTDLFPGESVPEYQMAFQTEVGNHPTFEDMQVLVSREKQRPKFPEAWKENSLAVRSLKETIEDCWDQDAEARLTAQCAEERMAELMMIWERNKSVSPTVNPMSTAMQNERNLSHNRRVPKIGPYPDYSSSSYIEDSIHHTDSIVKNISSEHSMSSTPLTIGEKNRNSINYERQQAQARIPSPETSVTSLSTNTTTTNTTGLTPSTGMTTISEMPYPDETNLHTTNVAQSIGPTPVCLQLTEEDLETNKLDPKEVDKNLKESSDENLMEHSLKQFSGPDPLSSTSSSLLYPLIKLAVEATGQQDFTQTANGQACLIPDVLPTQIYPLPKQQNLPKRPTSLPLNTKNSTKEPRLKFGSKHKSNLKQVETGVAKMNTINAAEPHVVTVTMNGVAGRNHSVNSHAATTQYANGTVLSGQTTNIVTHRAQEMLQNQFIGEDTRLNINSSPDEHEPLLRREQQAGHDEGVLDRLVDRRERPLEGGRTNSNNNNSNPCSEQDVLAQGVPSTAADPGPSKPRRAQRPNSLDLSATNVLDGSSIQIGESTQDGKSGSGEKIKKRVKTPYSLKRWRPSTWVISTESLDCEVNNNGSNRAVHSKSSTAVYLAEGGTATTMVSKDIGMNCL
Sequence of HPK1 (Q92918 whole entry): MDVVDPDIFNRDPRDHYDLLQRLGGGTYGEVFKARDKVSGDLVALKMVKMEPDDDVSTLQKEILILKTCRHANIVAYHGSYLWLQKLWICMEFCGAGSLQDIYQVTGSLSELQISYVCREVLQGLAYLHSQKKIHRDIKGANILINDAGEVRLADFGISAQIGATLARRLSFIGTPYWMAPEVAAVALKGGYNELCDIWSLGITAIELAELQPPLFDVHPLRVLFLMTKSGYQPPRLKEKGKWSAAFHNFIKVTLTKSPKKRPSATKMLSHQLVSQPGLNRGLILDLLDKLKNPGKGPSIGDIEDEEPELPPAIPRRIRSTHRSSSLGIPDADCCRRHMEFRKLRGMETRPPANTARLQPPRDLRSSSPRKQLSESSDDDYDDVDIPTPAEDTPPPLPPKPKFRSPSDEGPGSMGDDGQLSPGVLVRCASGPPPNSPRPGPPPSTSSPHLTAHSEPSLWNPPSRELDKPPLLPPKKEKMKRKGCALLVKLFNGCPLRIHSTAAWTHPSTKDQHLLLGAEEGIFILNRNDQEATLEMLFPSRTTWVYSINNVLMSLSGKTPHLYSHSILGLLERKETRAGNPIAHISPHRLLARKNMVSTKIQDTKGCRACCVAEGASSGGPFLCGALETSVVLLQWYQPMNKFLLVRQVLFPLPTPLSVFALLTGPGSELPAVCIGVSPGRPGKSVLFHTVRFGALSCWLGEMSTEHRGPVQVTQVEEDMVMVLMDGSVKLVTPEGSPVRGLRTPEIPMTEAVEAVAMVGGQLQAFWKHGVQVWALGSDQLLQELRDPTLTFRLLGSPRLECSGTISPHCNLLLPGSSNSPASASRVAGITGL
Sequence of EPHA2 (P29317 24-976): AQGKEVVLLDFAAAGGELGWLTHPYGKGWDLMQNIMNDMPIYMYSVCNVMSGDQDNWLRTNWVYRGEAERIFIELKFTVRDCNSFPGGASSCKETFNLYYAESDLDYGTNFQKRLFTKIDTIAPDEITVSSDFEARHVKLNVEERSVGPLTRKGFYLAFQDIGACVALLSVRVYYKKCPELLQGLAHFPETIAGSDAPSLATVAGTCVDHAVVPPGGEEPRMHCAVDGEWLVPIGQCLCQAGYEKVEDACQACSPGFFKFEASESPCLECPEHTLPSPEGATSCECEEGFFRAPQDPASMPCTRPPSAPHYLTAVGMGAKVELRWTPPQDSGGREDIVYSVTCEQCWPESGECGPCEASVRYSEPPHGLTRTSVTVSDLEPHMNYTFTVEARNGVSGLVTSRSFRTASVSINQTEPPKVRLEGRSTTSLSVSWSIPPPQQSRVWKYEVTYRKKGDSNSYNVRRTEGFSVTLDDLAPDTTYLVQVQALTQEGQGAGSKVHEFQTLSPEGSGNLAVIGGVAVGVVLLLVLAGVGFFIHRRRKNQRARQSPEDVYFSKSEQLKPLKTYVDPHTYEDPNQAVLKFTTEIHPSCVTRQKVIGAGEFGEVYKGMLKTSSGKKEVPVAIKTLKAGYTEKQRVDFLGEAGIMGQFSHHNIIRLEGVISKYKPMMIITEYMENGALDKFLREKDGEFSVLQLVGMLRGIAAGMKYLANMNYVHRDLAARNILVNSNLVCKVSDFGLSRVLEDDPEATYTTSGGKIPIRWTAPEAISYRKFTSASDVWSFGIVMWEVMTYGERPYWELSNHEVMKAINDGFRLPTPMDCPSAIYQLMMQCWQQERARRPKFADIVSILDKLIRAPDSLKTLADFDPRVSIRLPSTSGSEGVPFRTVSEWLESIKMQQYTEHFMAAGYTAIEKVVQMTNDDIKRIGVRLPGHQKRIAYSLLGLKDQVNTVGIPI
Sequence of PIM1 (P11309 whole entry): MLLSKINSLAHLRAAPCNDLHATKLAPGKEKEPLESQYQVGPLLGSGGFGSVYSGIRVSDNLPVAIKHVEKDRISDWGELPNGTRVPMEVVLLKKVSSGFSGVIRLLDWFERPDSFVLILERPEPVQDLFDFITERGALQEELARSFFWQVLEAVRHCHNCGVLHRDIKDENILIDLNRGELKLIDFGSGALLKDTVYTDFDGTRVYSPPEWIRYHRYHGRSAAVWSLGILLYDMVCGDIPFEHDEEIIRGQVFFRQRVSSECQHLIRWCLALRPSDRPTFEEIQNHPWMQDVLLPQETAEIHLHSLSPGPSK
Sequence of CAMK4 (Q16566 whole entry): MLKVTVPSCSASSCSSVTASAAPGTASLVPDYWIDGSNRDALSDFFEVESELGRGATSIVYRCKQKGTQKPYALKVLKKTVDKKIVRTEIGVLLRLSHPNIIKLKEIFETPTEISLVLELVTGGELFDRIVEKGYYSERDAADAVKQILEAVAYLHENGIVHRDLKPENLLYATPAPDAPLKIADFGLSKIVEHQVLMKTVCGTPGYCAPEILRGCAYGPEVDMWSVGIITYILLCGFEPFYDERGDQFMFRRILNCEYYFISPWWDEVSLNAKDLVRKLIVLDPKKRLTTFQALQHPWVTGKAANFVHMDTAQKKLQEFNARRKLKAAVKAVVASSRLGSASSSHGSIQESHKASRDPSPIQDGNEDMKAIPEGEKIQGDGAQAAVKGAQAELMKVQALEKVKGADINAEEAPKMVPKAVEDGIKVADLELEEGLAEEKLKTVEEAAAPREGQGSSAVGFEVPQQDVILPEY
Sequence of NEK3 (P51956 whole entry): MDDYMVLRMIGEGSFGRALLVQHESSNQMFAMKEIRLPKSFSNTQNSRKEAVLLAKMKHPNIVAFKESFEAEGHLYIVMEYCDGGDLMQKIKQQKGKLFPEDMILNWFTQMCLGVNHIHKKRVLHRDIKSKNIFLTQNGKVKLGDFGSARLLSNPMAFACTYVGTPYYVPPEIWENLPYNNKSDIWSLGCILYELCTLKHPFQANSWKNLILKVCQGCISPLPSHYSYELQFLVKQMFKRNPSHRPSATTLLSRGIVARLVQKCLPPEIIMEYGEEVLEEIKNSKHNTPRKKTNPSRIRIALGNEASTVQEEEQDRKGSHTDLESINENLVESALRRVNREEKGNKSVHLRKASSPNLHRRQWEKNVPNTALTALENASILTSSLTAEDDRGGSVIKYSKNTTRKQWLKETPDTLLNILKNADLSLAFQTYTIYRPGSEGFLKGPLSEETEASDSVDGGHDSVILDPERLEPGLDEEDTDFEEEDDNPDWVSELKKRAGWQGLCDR
Sequence of AURKA (O14965 whole entry): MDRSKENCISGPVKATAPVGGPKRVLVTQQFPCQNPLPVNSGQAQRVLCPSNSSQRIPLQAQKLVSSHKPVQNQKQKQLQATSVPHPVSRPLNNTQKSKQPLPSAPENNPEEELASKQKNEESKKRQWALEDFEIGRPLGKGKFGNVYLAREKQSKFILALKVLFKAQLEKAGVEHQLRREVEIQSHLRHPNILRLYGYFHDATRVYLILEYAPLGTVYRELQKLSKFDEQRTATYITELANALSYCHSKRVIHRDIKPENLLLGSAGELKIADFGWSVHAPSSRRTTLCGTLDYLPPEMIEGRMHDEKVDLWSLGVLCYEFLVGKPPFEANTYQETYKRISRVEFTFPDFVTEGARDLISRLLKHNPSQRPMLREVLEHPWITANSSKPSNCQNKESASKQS
Sequence of AURKB (Q96GD4 whole entry): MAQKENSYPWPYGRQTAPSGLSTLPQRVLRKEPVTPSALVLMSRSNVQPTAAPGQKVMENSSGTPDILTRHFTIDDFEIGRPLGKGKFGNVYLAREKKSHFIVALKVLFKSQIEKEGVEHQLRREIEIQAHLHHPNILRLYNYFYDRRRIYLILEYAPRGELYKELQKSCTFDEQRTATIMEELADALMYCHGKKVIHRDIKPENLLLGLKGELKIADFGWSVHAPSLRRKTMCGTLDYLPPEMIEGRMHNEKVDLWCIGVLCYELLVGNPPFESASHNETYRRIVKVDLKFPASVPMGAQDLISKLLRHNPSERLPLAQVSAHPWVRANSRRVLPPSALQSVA

SMILES	remaining binding at 1 µM [1] [%]	% control [2] [%]	remaining binding at 1 µM [3] [%]	remaining binding at 1 µM [4] [%]	remaining binding at 1 µM [5] [%]	remaining binding at 1 µM [6] [%]	remaining binding at 1 µM [7] [%]	remaining binding at 1 µM [8] [%]	remaining binding at 1 µM [9] [%]	remaining binding at 1 µM [10] [%]	remaining binding at 1 µM [11] [%]	remaining binding at 1 µM [12] [%]	remaining binding at 1 µM [13] [%]	remaining binding at 1 µM [14] [%]	remaining binding at 1 µM [15] [%]	remaining binding at 1 µM [16] [%]	remaining binding at 1 µM [17] [%]	remaining binding at 1 µM [18] [%]	remaining binding at 1 µM [19] [%]	remaining binding at 1 µM [20] [%]	also measured
CCNc1cc(Nc2ccc(C(=O)N3CCC(N4CCOCC4)CC3)cc2OC)nc2[nH]cc(C#N)c12 [Example 18, 4-(ethylamino)-6-((2-methoxy-4-(4-morpholinopiperidine-1-carbonyl)phenyl)amino)-1H-pyrrolo[2,3-b]pyridine-3-carbonitrile]	99	92	93	71	16	93	79	59	87	79	89	76	100	94	97	90	14	69	1.1	100	remaining binding at 1 µM [21]: 33%; remaining binding at 1 µM [22]: 59%; remaining binding at 1 µM [23]: 68%; remaining binding at 1 µM [24]: 87%; remaining binding at 1 µM [25]: 76%; remaining binding at 1 µM [26]: 89%; remaining binding at 1 µM [27]: 15%; remaining binding at 1 µM [28]: 87%; remaining binding at 1 µM [29]: 44%; remaining binding at 1 µM [30]: 100%; remaining binding at 1 µM [31]: 73%; remaining binding at 1 µM [32]: 67%; remaining binding at 1 µM [33]: 84%; remaining binding at 1 µM [34]: 74%; remaining binding at 1 µM [35]: 86%; remaining binding at 1 µM [36]: 95%; remaining binding at 1 µM [37]: 92%; remaining binding at 1 µM [38]: 94%; remaining binding at 1 µM [39]: 96%; remaining binding at 1 µM [40]: 76%
CCNc1cc(Nc2ccc(C(=O)N3CCC(N4CCOCC4)CC3)cc2OC)nc2[nH]cc(C(F)(F)F)c12 [Example 57, (4-((4-(ethylamino)-3-(trifluoromethyl)-1H-pyrrolo[2,3-b]pyridin-6-yl)amino)-3-methoxyphenyl) (4-morpholinopiperidin-1-yl)methanone]	85	79	66	73	26	76	98	100	100	100	85	85	78	92	83	85	86	54	48	100	remaining binding at 1 µM [21]: 77%; remaining binding at 1 µM [22]: 94%; remaining binding at 1 µM [23]: 100%; remaining binding at 1 µM [24]: 93%; remaining binding at 1 µM [25]: 88%; remaining binding at 1 µM [26]: 85%; remaining binding at 1 µM [27]: 41%; remaining binding at 1 µM [28]: 97%; remaining binding at 1 µM [29]: 84%; remaining binding at 1 µM [30]: 100%; remaining binding at 1 µM [31]: 81%; remaining binding at 1 µM [32]: 93%; remaining binding at 1 µM [33]: 84%; remaining binding at 1 µM [34]: 92%; remaining binding at 1 µM [35]: 90%; remaining binding at 1 µM [36]: 94%; remaining binding at 1 µM [37]: 91%; remaining binding at 1 µM [38]: 83%; remaining binding at 1 µM [39]: 79%; remaining binding at 1 µM [40]: 91%
